Experiment: Kinetic solubility assay
Type: physicochemical
Conditions: pH 6.5 PBS buffer, HPLC
Procedure: Representative Compounds of the Disclosure were tested in a solubility assay with pH 6.5 PBS buffer. PBS buffer was prepared by dissolving 4.86 g of potassium dihydrogen phosphate and 5.09 g of disodium hydrogen phosphate dodecahydrate in 1 L of ultrapure water to have final pH value of 6.5. In the solubility assay, 0.5 mg of test sample was dissolved in 1 mL of methanol and the stock solution was transferred into 2 mL EP tube, and evaporated at 50° C. for 3 h. To the tube was added 1 mL of PBS buffer and the mixture was stirred and shaken for 1-2 h. The solution was allowed to stand overnight and then filtered before HPLC analysis. Another 1.5 mg of the sample was dissolved in 3 mL of methanol to prepare a calibration curve with a series of concentration range of 5-500 μM. The solubility of each sample was determined by the measured peak area in HPLC.
With `Cc1c2c(nn1C)CN(S(C)(=O)=O)Cc1cc(n(C)n1)CSc1cc(c3ccc(F)cc3c1)OCCCc1c(C(=O)O)n(C)c3c-2c(Cl)ccc13` [compound 47, (S)-(Z)-1^6-chloro-9^6-fluoro-1^1,2^1,2^5,6^1-tetramethyl-4-(methylsulfonyl)-1^1H,2^1H,6^1H-10-oxa-8-thia-4-aza-1(7,3)-indola-2(4,3),6(3,5)-dipyrazola-9(3,1)-naphthalenacyclotridecaphane-1^2-carboxylic acid] the “Solubility (pH 6.5, μg/mL)” value was under 1 μg/mL. For `Cn1nc2cc1CSc1cc(c3ccc(F)cc3c1)OCCCc1c(C(=O)O)n(C)c3c(c(Cl)ccc13)-c1c(nn3c1COCC3)CSC2` (atropisomer, axis not shown) [compound 40, (R)-(Z)-1^6-chloro-9^6-fluoro-1^1,6^1-dimethyl-26,27-dihydro-1^1H,2^4H,6^1H-10-oxa-4,8-dithia-2(3,2)-pyrazolo[5,1-c][1,4]oxazina-1(7,3)-indola-6(3,5)-pyrazola-9(3,1)-naphthalenacyclotridecaphane-1^2-carboxylic acid], the “Solubility (pH 6.5, μg/mL)” value was 74 μg/mL. For `Cn1nc2cc1CSc1cc(c3ccc(F)cc3c1)OCCCc1c(C(=O)O)n(C)c3c(c(Cl)ccc13)-c1c(nn3c1COCC3)CSC2` (atropisomer, axis not shown) [compound 39, (S)-(Z)-1^6-chloro-9^6-fluoro-1^1,6^1-dimethyl-26,27-dihydro-1^1H,2^4H,6^1H-10-oxa-4,8-dithia-2(3,2)-pyrazolo[5,1-c][1,4]oxazina-1(7,3)-indola-6(3,5)-pyrazola-9(3,1)-naphthalenacyclotridecaphane-1^2-carboxylic acid], the “Solubility (pH 6.5, μg/mL)” value was under 1 μg/mL. With `Cc1c2c(nn1C)CN(S(C)(=O)=O)Cc1cc(n(C)n1)CSc1cc(c3ccc(F)cc3c1)OCCCc1c(C(=O)O)n(C)c3c-2c(Cl)ccc13` [compound 48, (R)-(Z)-1^6-chloro-9^6-fluoro-1^1,2^1,2^5,6^1-tetramethyl-4-(methylsulfonyl)-1^1H,2^1H,6^1H-10-oxa-8-thia-4-aza-1(7,3)-indola-2(4,3),6(3,5)-dipyrazola-9(3,1)-naphthalenacyclotridecaphane-1^2-carboxylic acid] the “Solubility (pH 6.5, μg/mL)” value was 3 μg/mL. In the case of `Cc1c2c(nn1C)CN(S(C)(=O)=O)Cc1cc(n(C)n1)CSc1cc(c3ccc(F)cc3c1)OCCCc1c(C(=O)O)n(C)c3c-2c(Cl)ccc13` [compound 45, (Z)-1^6-chloro-9^6-fluoro-1^1,2^1,2^5,6^1-tetramethyl-4-(methylsulfonyl)-1^1H,2^1H,6^1H-10-oxa-8-thia-4-aza-1(7,3)-indola-2(4,3),6(3,5)-dipyrazola-9(3,1)-naphthalenacyclotridecaphane-1^2-carboxylic acid], the “Solubility (pH 6.5, μg/mL)” value is reported as over 400 μg/mL.

— US12319703B2, “Macrocyclic fused pyrazoles as Mcl-1 inhibitors” (ASCENTAGE PHARMA (SUZHOU) CO., LTD., priority 2019, dated 2025)
